“Also recorded” adds a separate entry of the source. Like-named read-outs stand apart in the source and are kept apart here.
What was measured:
Format in all cases: cell-based, human
naive CD4+ T cells = experiment: Naive T cell proliferation assay (CFSE dilution) with infected DC and anti-CD3; conditions: 25 μM AZT or 1 μM SCY
Protocol: Naive T cell proliferation assay: 48 h after infection, naive T cells were labeled with CFSE (eBioscience) as described previously (Antons et al., 2008). DC were infected with dilutions of SIVVLP(G) and pLaiΔEnv-GFP3(G) WT (indicated as HIVGFP(G)) or G89V. AZT was added at the time of infection and SCY was added from 3 to 8 hours after infection. 48 hours after infection, half of the DC was processed for surface staining and cytometry. The other half was washed with media and resuspended in fresh media without cytokines. 20,000 T cells were mixed with DC at a DC to T ratio of 1:5 and 1:15. Cells were stimulated by dilutions of anti-CD3 (OKT3 hybridoma supernatant, approximately 1-100 ng/ml) in a total volume of 150 to 200 μl in round bottom 96-well plates. Cells were harvested and analyzed by flow cytometry at day 4 or day 5 postactivation.

[1] = tested on: monocyte-derived dendritic cells (MDDC); conditions: for effect on MDDC activation (CD86 in GFP+) by HIVGFP(G)+SIVVLP(G): inhibitor added within the first 24 hours of infection
STAT1 = experiment: Immunoblot of phospho-STAT1 over time in MDDC; conditions: after treatment or infection
Protocol: Western blot analysis: Cells were lysed in 1% NP-40, 50 mM Tris pH 8, 120 mM NaC, 4 mM EDTA, 50 mM NaF, 1 mM NA3VO4 and a protease inhibitors cocktail (Roche). Total lysates were resolved on SDS-PAGE, transferred to PVDF membranes and probed with primary antibodies and corresponding HRP-conjugated secondary antibodies.
Western blot analysis: Cells were lysed in 1% NP-40, 50 mM Tris pH 8, 120 mM NaCl, 4 mM EDTA, 50 mM NaF, 1 mM NA3VO4 and a protease inhibitor cocktail (Roche). Total lysates were resolved on SDS-PAGE, transferred to PVDF membranes and probed with primary antibodies and corresponding HRP-conjugated secondary antibodies (GE Healthcare).

Compound	ability of treated, HIVGFP(G) and SIVVLP(G) infected DC to induce proliferation (naive CD4+ T cells)	effect on LPS- or poly(I:C)-induced CD86 up-regulation [1]	effect on MDDC activation (CD86 in GFP+) by HIVGFP(G)+SIVVLP(G) [1]	time at which STAT1 phosphorylation was present (STAT1) [h]	effect on MDDC activation (CD86 in GFP+) by HIVGFP(G)+SIVVLP(G) ([1]; listed as Raltegravir)
Cc1cn([C@H]2C[C@H](N=[N+]=[N-])[C@@H](CO)O2)c(=O)[nH]c1=O [AZT, Zidovudine]	reduced ability to induce proliferation	had no effect	blocked activation; also recorded: inhibited transduction efficiency and MDDC activation	–	–
lipopolysaccharide [LPS]	–	–	–	2	–
Cc1nnc(C(=O)NC(C)(C)c2nc(C(=O)NCc3ccc(F)cc3)c(O)c(=O)n2C)o1 [RAL, Raltegravir]	–	had no effect	blocked activation	–	inhibited transduction efficiency and MDDC activation
